We go through 26 molecules from patent US20220332708A1 (Cytokinetics, Inc., priority 2021, published 2022).

SMILES strings stand for the structures.

The assay relates to Bovine cardiac myofibrils. Description: Dose-dependent myofibril ATPase modulation (calcium-buffered, pyruvate kinase and lactate dehydrogenase-coupled ATPase assay at pCa25). It counts as biochemical. The note with it: concentration at which ATPase activity was 1.4-fold higher than the bottom of the dose curve, mean of a minimum of two independent tests. As to the method: In Vitro Model of Dose-Dependent Myofibril ATPase Modulation
Dose responses were measured using a calcium-buffered, pyruvate kinase and lactate dehydrogenase-coupled ATPase assay containing the following reagents (concentrations expressed are final assay concentrations): Potassium PIPES (12 mM), MgCl2 (2 mM), ATP (1 mM), DTT (1 mM), BSA (0.1 mg/ml), NADH (0.5 mM), PEP (1.5 mM), pyruvate kinase (4 U/ml), lactate dehydrogenase (8 U/ml), and antifoam (90 ppm). The pH was adjusted to 6.80 at 22° C. by addition of potassium hydroxide. Calcium levels were controlled by a buffering system containing 0.6 mM EGTA and varying concentrations of calcium, to achieve a free calcium concentration of 1×10^−4 M to 1×10^−8 M.
Bovine cardiac myofibrils were obtained by homogenizing the appropriate tissue in the presence of detergent. Such treatment removes membranes and majority of soluble cytoplasmic proteins but leaves intact cardiac sarcomeric acto-myosin apparatus. Concentrations of myofibrils were adjusted to achieve the necessary rate of ATP hydrolysis (typically 0.25-1.0 mg/ml).
Chemical entity dose responses were measured at the calcium concentration corresponding to 25% of maximal ATPase activity (pCa25), so a preliminary experiment was performed to test the response of the ATPase activity to free calcium concentrations in the range of 1×10^−4 M to 1×10^−8 M. Subsequently, the assay mixture was adjusted to the pCa25. Assays were performed by first preparing a dilution series of test chemical entity, each with an assay mixture containing potassium Pipes, MgCl2, BSA, DTT, pyruvate kinase, lactate dehydrogenase, myofibrils, antifoam, EGTA, CaCl2), and water. The assay was started by adding an equal volume of solution containing potassium Pipes, MgCl2, BSA, DTT, ATP, NADH, PEP, antifoam, and water. ATP hydrolysis was monitored by absorbance at 340 nm. The resulting dose response curve was fit by the 4 parameter equation y=Bottom+((Top−Bottom)/(1+((EC50/X)^Hill))). […] AC1.4 values reported in the table below are mean values based on a minimum of two independent tests.
Turning to `Cc1[nH]c(S(=O)(=O)NC23CC(c4ccccc4)(C2)C3)cc1C(=O)N1CC(C)(C#N)C1` [Compound 52, 4-(3-Cyano-3-methylazetidine-1-carbonyl)-5-methyl-N-(3-phenylbicyclo[1.1.1]pentan-l-yl)-1H-pyrrole-2-sulfonamide], the AC1.4 was 1.4557 µM. Under `Cc1[nH]c(S(=O)(=O)N[C@H]2C[C@H](c3ccc(Cl)cc3)C2)cc1C(=O)N1CC(C)(C#N)C1` [Compound 53, N-((trans)-3-(4-chlorophenyl)cyclobutyl)-4-(3-cyano-3-methylazetidine-1-carbonyl)-5-methyl-1H-pyrrole-2-sulfonamide] stands 0.6222 µM. As to `Cc1[nH]c(S(=O)(=O)N[C@H]2C[C@@H](c3cccc(C(F)(F)F)c3)C2)cc1C(=O)N1CC(C)(C#N)C1` [Compound 54, 4-(3-Cyano-3-methylazetidine-1-carbonyl)-5-methyl-N-((cis)-3-(3-(trifluoromethyl)phenyl)cyclobutyl)-1H-pyrrole-2-sulfonamide], the AC1.4 stood at 2.9934 µM. `Cc1[nH]c(S(=O)(=O)N[C@H]2C[C@H](n3cc(C(F)(F)F)cn3)C2)cc1C(=O)N1CC(C#N)C1` [Compound 55, 4-(3-cyanoazetidine-1-carbonyl)-5-methyl-N-((trans)-3-(4-(trifluoromethyl)-1H-pyrazol-1-yl)cyclobutyl)-1H-pyrrole-2-sulfonamide]: the AC1.4 amounted to 5.7638 µM.

On to `Cc1nn([C@H]2C[C@H](NS(=O)(=O)c3cc(C(=O)N4CC(C#N)C4)c(C)[nH]3)C2)cc1C(F)(F)F` [Compound 56, 4-(3-Cyanoazetidine-1-carbonyl)-5-methyl-N-((trans)-3-(3-methyl-4-(trifluoromethyl)-1H-pyrazol-1-yl)cyclobutyl)-1H-pyrrole-2-sulfonamide], for which the AC1.4 was found to be 0.9674 µM.

Consider `Cc1[nH]c(S(=O)(=O)N[C@H]2C[C@H](c3cc(C(F)(F)F)ccn3)C2)cc1C(=O)N1CC(C#N)C1` [Compound 57, 4-(3-Cyanoazetidine-1-carbonyl)-5-methyl-N-((trans)-3-(4-(trifluoromethyl)pyridin-2-yl)cyclobutyl)-1H-pyrrole-2-sulfonamide], for which the AC1.4 is 0.8572 µM. The result for `Cc1[nH]c(S(=O)(=O)N[C@H]2C[C@H](c3cc(C(F)(F)F)ccn3)C2)cc1C(=O)N1CC(C)(C#N)C1` [Compound 58] reads 1.0081 µM; that for `CNc1cc2c(cc1S(=O)(=O)N[C@H]1C[C@H](c3cc(C(F)(F)F)ccn3)C1)c(=O)[nH]c(=O)n2C` [Compound 59], 0.4184 µM; that for `CNc1cc2c(cc1S(=O)(=O)N[C@H]1C[C@H](c3cc(C(F)(F)F)ccn3)C1)c(=O)[nH]c(=O)n2C` [Compound 60, 1-Methyl-7-(methylamino)-2,4-dioxo-N-((trans)-3-(4-(trifluoromethyl)pyridin-2-yl)cyclobutyl)-1,2,3,4-tetrahydroquinazoline-6-sulfonamide], 2.062 µM. For `CNc1cc2c(cc1S(=O)(=O)N[C@H]1C[C@H](n3cc(C(F)(F)F)c(C)n3)C1)c(=O)[nH]c(=O)n2C` [Compound 61], the AC1.4 was 0.3215 µM. For the molecule `COc1cc2c(cc1S(=O)(=O)N[C@H]1C[C@H](n3cc(C(F)(F)F)c(C)n3)C1)c(=O)[nH]c(=O)n2C` [Compound 62, 7-Methoxy-1-methyl-N-((trans)-3-(3-methyl-4-(trifluoromethyl)-1H-pyrazol-1-yl)cyclobutyl)-2,4-dioxo-1,2,3,4-tetrahydroquinazoline-6-sulfonamide], the AC1.4 stood at 0.8691 µM. As for `Cc1[nH]c(S(=O)(=O)N[C@]2(Cc3ccc(Cl)cc3)CCOC2)cc1C(=O)N1CC(F)(F)C1` [Compound 64, (R)-N-(3-(4-chlorobenzyl)tetrahydrofuran-3-yl)-4-(3,3-difluoroazetidine-1-carbonyl)-5-methyl-1H-pyrrole-2-sulfonamide], the AC1.4 worked out at 0.3886 µM. Turning to `Cc1cnc(-c2cc(S(=O)(=O)N[C@H]3C[C@H](n4cc(C(F)(F)F)c(C)n4)C3)[nH]c2C)o1` [Compound 66, 5-Methyl-N-((trans)-3-(3-methyl-4-(trifluoromethyl)-1H-pyrazol-1-yl)cyclobutyl)-4-(5-methyloxazol-2-yl)-1H-pyrrole-2-sulfonamide], the AC1.4 was found to be 1.1207 µM.

As for `Cc1[nH]c(S(=O)(=O)N[C@@H]2CCc3cc(Cl)ccc3C2)cc1C(=O)N1CC(C)(C#N)C1` [Compound 67, (R)-N-(6-chloro-1,2,3,4-tetrahydronaphthalen-2-yl)-4-(3-cyano-3-methylazetidine-1-carbonyl)-5-methyl-1H-pyrrole-2-sulfonamide], the AC1.4 was found to be 0.05605 µM. In the case of `Cc1[nH]c(S(=O)(=O)N[C@@H]2CCc3c([nH]c4ccccc34)C2)cc1C1=NCC(C)(C)O1` [Compound 68, (R)-4-(5,5-dimethyl-4,5-dihydrooxazol-2-yl)-5-methyl-N-(2,3,4,9-tetrahydro-1H-carbazol-2-yl)-1H-pyrrole-2-sulfonamide], the AC1.4 amounted to 0.1213 µM. As to `Cc1[nH]c(S(=O)(=O)N[C@@H]2Cc3ccc(Cl)cc3C2)cc1C(=O)N1CC(C)(C#N)C1` [Compound 69, (R)-N-(5-chloro-2,3-dihydro-1H-inden-2-yl)-4-(3-cyano-3-methylazetidine-1-carbonyl)-5-methyl-1H-pyrrole-2-sulfonamide], the AC1.4 stood at 0.166 µM. Take `Cc1[nH]c(S(=O)(=O)N[C@@H]2COc3cc(F)c(F)cc3C2)cc1C(=O)N1CC(C)(C#N)C1` [Compound 70, (S)-4-(3-cyano-3-methylazetidine-1-carbonyl)-N-(6,7-difluorochroman-3-yl)-5-methyl-1H-pyrrole-2-sulfonamide]: the AC1.4 came out at 0.3162 µM. For the molecule `Cc1[nH]c(S(=O)(=O)N[C@@H]2COc3ccc(Cl)cc3C2)cc1C(=O)N1CC(C)(C#N)C1` [Compound 71, (S)-N-(6-chlorochroman-3-yl)-4-(3-cyano-3-methylazetidine-1-carbonyl)-5-methyl-1H-pyrrole-2-sulfonamide], the AC1.4 was 0.3054 µM. With `Cc1[nH]c(S(=O)(=O)N[C@@H]2COc3cc(Cl)ccc3C2)cc1C(=O)N1CC(C)(C#N)C1` [Compound 72, (S)-N-(7-chlorochroman-3-yl)-4-(3-cyano-3-methylazetidine-1-carbonyl)-5-methyl-1H-pyrrole-2-sulfonamide], the AC1.4 stood at 0.4237 µM. In the case of `Cc1[nH]c(S(=O)(=O)N[C@@H]2COc3cc(F)c(Cl)cc3C2)cc1C(=O)N1CC(C)(C#N)C1` [Compound 73, (S)-N-(6-chloro-7-fluorochroman-3-yl)-4-(3-cyano-3-methylazetidine-1-carbonyl)-5-methyl-1H-pyrrole-2-sulfonamide], the AC1.4 was 0.0793 µM. The result for `Cc1[nH]c(S(=O)(=O)N[C@@H]2COc3ccc(Cl)cc3[C@@H]2O)cc1C(=O)N1CC(C#N)C1` [Compound 74, N-((3R,4S)-6-chloro-4-hydroxychroman-3-yl)-4-(3-cyanoazetidine-1-carbonyl)-5-methyl-1H-pyrrole-2-sulfonamide] reads 0.5684 µM. As to `Cc1[nH]c(S(=O)(=O)N[C@H]2COc3ccc(Cl)cc3[C@@H]2O)cc1C(=O)N1CC(C)(C#N)C1` [Compound 75, N-((3S,4S)-6-chloro-4-hydroxychroman-3-yl)-4-(3-cyano-3-methylazetidine-1-carbonyl)-5-methyl-1H-pyrrole-2-sulfonamide], the AC1.4 stood at 0.5877 µM.

As to `Cc1[nH]c(S(=O)(=O)N[C@@H]2COc3cc(F)c(Cl)cc3[C@H]2O)cc1C(=O)N1CC(C)(C#N)C1` [Compound 77, N-((3R,4R)-6-chloro-7-fluoro-4-hydroxychroman-3-yl)-4-(3-cyano-3-methylazetidine-1-carbonyl)-5-methyl-1H-pyrrole-2-sulfonamide], the AC1.4 was 0.1896 µM. `Cc1[nH]c(S(=O)(=O)N[C@@H]2COc3cc(F)c(Cl)cc3[C@@H]2O)cc1C(=O)N1CC(C)(C#N)C1` [Compound 78, N-((3R,4S)-6-chloro-7-fluoro-4-hydroxychroman-3-yl)-4-(3-cyano-3-methylazetidine-1-carbonyl)-5-methyl-1H-pyrrole-2-sulfonamide]: the AC1.4 is 0.1127 µM.

For `Cc1[nH]c(S(=O)(=O)NC2Cc3cc(Cl)c(Cl)cc3C2)cc1C(=O)N1CC(C)(C#N)C1` [Compound 79, 4-(3-cyano-3-methylazetidine-1-carbonyl)-N-(5,6-dichloro-2,3-dihydro-1H-inden-2-yl)-5-methyl-1H-pyrrole-2-sulfonamide], the AC1.4 came out at 0.0599 µM. Regarding `Cc1[nH]c(S(=O)(=O)N[C@H]2COc3cc(F)c(Cl)cc3C2)cc1C(=O)N1CC(C)(C#N)C1` [Compound 80, (R)-N-(6-chloro-7-fluorochroman-3-yl)-4-(3-cyano-3-methylazetidine-1-carbonyl)-5-methyl-1H-pyrrole-2-sulfonamide], the AC1.4 amounted to 13.1993 µM.
